Assay results taken from ChEMBL document CHEMBL1141706 (Bioorg Med Chem Lett, 2008).

biological target: 5-hydroxytryptamine receptor 2A (Homo sapiens, UniProt P28223); assay: Displacement of [3H]ketanserin from human 5HT2A receptor
Sequence (P28223 whole entry): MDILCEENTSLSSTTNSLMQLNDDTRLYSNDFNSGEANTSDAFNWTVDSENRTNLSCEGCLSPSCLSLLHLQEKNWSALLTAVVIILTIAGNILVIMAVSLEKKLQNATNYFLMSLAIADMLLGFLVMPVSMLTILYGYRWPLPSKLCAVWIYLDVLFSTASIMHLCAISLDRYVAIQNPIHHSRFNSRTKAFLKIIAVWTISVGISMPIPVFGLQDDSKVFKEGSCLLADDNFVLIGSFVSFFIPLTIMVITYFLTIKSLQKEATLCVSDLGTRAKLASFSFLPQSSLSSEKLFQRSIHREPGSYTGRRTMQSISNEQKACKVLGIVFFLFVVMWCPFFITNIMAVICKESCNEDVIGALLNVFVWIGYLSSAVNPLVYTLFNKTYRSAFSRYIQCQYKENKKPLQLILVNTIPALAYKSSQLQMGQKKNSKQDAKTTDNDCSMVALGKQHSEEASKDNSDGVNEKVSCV

Row | SMILES | Ki
1 | COc1cccc2c1Cc1ccccc1C2CN (centres undefined) | 0.124 µM
2 | COc1cccc2c1C(CN)c1ccccc1C2 (centres undefined) | 1.16 µM
3 | COc1ccc2c(c1)C(CN)c1ccccc1C2 (centres undefined) | 1.37 µM
4 | COc1ccc2c(c1)Cc1ccccc1C2CN (centres undefined) | 0.0075 µM
